Measured values: the NIST ThermoML archive (doi:10.1021/je4004542)
Several values for one entry are separate records, joined by “and”; a condition that tells them apart may be missing. Equal entries are not always repeated. Numbers after ± are expanded uncertainties.

Settings: for mass density: Liquid, isochoric method; for surface tension liquid-gas: Ring tensiometer

CC(F)(F)CC(F)(F)F [1,1,1,3,3-pentafluorobutane]
Settings | mass density [kg/m3]
237.49 K, 3052.4 kPa | 1382.79 ± 1.1
238.27 K, 4040.1 kPa | 1382.71 ± 1.1
239.08 K, 5074 kPa | 1382.22 ± 1.1
239.08 K, 5081.7 kPa | 1382.63 ± 1.1
243.12 K, 10185 kPa | 1382.22 ± 1.1
247.08 K, 15188 kPa | 1381.81 ± 1.1
247.43 K, 956.6 kPa | 1361.21 ± 1.1
248.25 K, 1931.8 kPa | 1361.13 ± 1.1
249.22 K, 3081.2 kPa | 1361.03 ± 1.1
250.2 K, 4243.7 kPa | 1360.94 ± 1.1
250.92 K, 19991 kPa | 1381.43 ± 1.1
250.93 K, 5088.8 kPa | 1360.86 ± 1.1
255 K, 25056 kPa | 1381.02 ± 1.1
255.26 K, 10152 kPa | 1360.44 ± 1.1
258.99 K, 29998 kPa | 1380.62 ± 1.1
259.5 K, 15102 kPa | 1360.02 ± 1.1
260.21 K, 1298.1 kPa | 1336.72 ± 1.1
261.05 K, 2152.9 kPa | 1336.64 ± 1.1
261.98 K, 3278.8 kPa | 1336.55 ± 1.1
262.73 K, 4030.2 kPa | 1336.48 ± 1.1
262.97 K, 34873 kPa | 1380.23 ± 1.1
263.72 K, 19989 kPa | 1359.61 ± 1.1
263.74 K, 5132.2 kPa | 1336.38 ± 1.1
267.12 K, 39916 kPa | 1379.82 ± 1.1
268.05 K, 24964 kPa | 1359.2 ± 1.1
268.32 K, 10033 kPa | 1335.95 ± 1.1
272.35 K, 29861 kPa | 1358.79 ± 1.1
273.08 K, 15145 kPa | 1335.5 ± 1.1
273.72 K, 1076.8 kPa | 1309.97 ± 1.1
274.73 K, 2060 kPa | 1309.88 ± 1.1
275.63 K, 2942.2 kPa | 1309.8 ± 1.1
276.61 K, 3921.9 kPa | 1309.71 ± 1.1
276.83 K, 34914 kPa | 1358.36 ± 1.1
277.65 K, 4903.9 kPa | 1309.61 ± 1.1
277.66 K, 19995 kPa | 1335.08 ± 1.1
281.43 K, 40068 kPa | 1357.92 ± 1.1
282.34 K, 24894 kPa | 1334.64 ± 1.1
282.69 K, 10162 kPa | 1310.01 ± 1.1
287.06 K, 29792 kPa | 1334.21 ± 1.1
287.75 K, 1242 kPa | 1280.22 ± 1.1
287.79 K, 15107 kPa | 1309.56 ± 1.1
288.9 K, 2019.2 kPa | 1280.13 ± 1.1
290.22 K, 3193 kPa | 1280.01 ± 1.1
291.35 K, 4070.9 kPa | 1279.92 ± 1.1
292.09 K, 35022 kPa | 1333.75 ± 1.1
292.96 K, 5455.1 kPa | 1279.78 ± 1.1
292.96 K, 20092 kPa | 1309.09 ± 1.1
296.9 K, 39956 kPa | 1333.31 ± 1.1
297.78 K, 24667 kPa | 1308.67 ± 1.1
298.16 K, 10021 kPa | 1279.33 ± 1.1
298.57 K, 1157.4 kPa | 1258.72 ± 1.1
299.69 K, 2006.3 kPa | 1258.62 ± 1.1
301.02 K, 3084.3 kPa | 1258.51 ± 1.1
302.24 K, 4081.3 kPa | 1258.41 ± 1.1
303.22 K, 29830 kPa | 1308.18 ± 1.1
303.47 K, 5080.2 kPa | 1258.31 ± 1.1
303.85 K, 15147 kPa | 1278.84 ± 1.1
308.65 K, 34947 kPa | 1307.7 ± 1.1
309.5 K, 20037 kPa | 1278.36 ± 1.1
309.51 K, 9974.6 kPa | 1257.8 ± 1.1
309.96 K, 1066.8 kPa | 1234.65 ± 1.1
311.31 K, 2069.7 kPa | 1234.54 ± 1.1
312.57 K, 3017.8 kPa | 1234.43 ± 1.1
313.89 K, 4006.1 kPa | 1234.33 ± 1.1
314.06 K, 40001 kPa | 1307.23 ± 1.1
315.23 K, 5013.4 kPa | 1234.22 ± 1.1
315.28 K, 25013 kPa | 1277.86 ± 1.1
315.8 K, 15053 kPa | 1257.28 ± 1.1
321.09 K, 29987 kPa | 1277.37 ± 1.1
322.04 K, 20055 kPa | 1256.76 ± 1.1
322.05 K, 10082 kPa | 1233.67 ± 1.1
322.3 K, 1278.8 kPa | 1207.34 ± 1.1
323.48 K, 1919.7 kPa | 1207.25 ± 1.1
325.25 K, 3125.1 kPa | 1207.12 ± 1.1
326.62 K, 4057.4 kPa | 1207.01 ± 1.1
326.99 K, 34967 kPa | 1276.87 ± 1.1
327.9 K, 4926.1 kPa | 1206.91 ± 1.1
328.32 K, 25047 kPa | 1256.24 ± 1.1
328.8 K, 15073 kPa | 1233.12 ± 1.1
333.06 K, 40085 kPa | 1276.36 ± 1.1
334.62 K, 30028 kPa | 1255.72 ± 1.1
335.52 K, 1037.9 kPa | 1175.56 ± 1.1
335.52 K, 10079 kPa | 1206.32 ± 1.1
335.52 K, 20025 kPa | 1232.59 ± 1.1
337.15 K, 2014.4 kPa | 1175.44 ± 1.1
338.81 K, 3050.5 kPa | 1175.32 ± 1.1
340.39 K, 4011 kPa | 1175.2 ± 1.1
341.51 K, 35426 kPa | 1255.16 ± 1.1
342.03 K, 5008.9 kPa | 1175.08 ± 1.1
342.36 K, 25012 kPa | 1232.04 ± 1.1
343.05 K, 15153 kPa | 1205.73 ± 1.1
347.07 K, 39768 kPa | 1254.7 ± 1.1
353.15 K, 11756 kPa | 1174.25 ± 1.1
353.15 K, 21912 kPa | 1204.96 ± 1.1
353.15 K, 32850 kPa | 1231.18 ± 1.1

Settings | surface tension liquid-gas
261.8 K | 19.87 ± 0.36 mN/m
261.94 K | 19.66 ± 0.36 mN/m
268.05 K | 19.19 ± 0.34 mN/m
268.09 K | 19.01 ± 0.34 mN/m
273.05 K | 18.56 ± 0.34 mN/m and 18.41 ± 0.34 mN/m
277.76 K | 18.08 ± 0.33 mN/m and 17.98 ± 0.33 mN/m
282.88 K | 17.57 ± 0.34 mN/m
282.98 K | 17.42 ± 0.34 mN/m
288.32 K | 17.05 ± 0.32 mN/m
288.35 K | 16.88 ± 0.32 mN/m
293.51 K | 16.3 ± 0.32 mN/m
293.54 K | 16.29 ± 0.32 mN/m
297.79 K | 15.81 ± 0.33 mN/m
297.86 K | 15.92 ± 0.33 mN/m
302.48 K | 15.41 ± 0.31 mN/m
302.55 K | 15.38 ± 0.31 mN/m
308.11 K | 14.66 ± 0.3 mN/m
308.31 K | 14.65 ± 0.3 mN/m
